Data on nine compounds can be found in US20260193268A1, “TRICYCLIC PI3Ka INHIBITOR, PREPARATION METHOD THEREFOR, AND PHARMACEUTICAL USE THEREOF” (WIGEN BIOMEDICINE TECHNOLOGY (SHANGHAI) CO., LTD., priority 2022, published 2026).

For assay [1], the system named is HCC1954 cells (with PI3Kα H1047R mutation). Nature of the assay: In vitro inhibition of HCC1954 cell proliferation (CellTiter-Lumi). The format is cell-based. Particulars: Homo sapiens, HCC1954, 144 h, HCC1954 cells, 144 h, CellTiter-Lumi; numeric values; read-out: Inhibitory activity against HCC1954 cells (IC50). The method, then: Assay for In Vitro Inhibition of HCC1954 Cell Proliferation by Compounds of the Present Disclosure
The growth of the cells was evaluated, and the IC50 for the inhibition of cell growth by the compounds was calculated.

A further assay has as its target PI3Kα (Homo sapiens, UniProt P42336). Nature of the assay: ADP-Glo kinase assay, in vitro inhibition of PI3Kα kinase activity. The format is biochemical. The note with it: 25 μM ATP, PIP2 50 μg/mL, room temperature 1 h, read-out: Inhibitory activity against PI3K kinases, PI3Kα (IC50). The method, then: (§1) Biological Example 1. Assay for In Vitro Inhibition of PI3Kα, PI3Kβ, PI3Kγ, and PI3Kδ Kinase Activity by Compounds of the Present Disclosure
(§2) The experiment was performed using the ADP-Glo Kinase Assay kit according to the instructions. The following buffer solution was prepared: 50 mM HEPES, pH 7.5, 3 mM MgCl2, 1 mM EGTA, 100 mM NaCl, 0.03% CHAPS, 2 mM DTT. Test compound samples were dissolved in DMSO, diluted 3-fold at a starting concentration, e.g., 10 μM, and added to the screening system. A DMSO control and a kinase-free control were set simultaneously. The optimal concentrations of PI3Kα, PI3Kδ, PI3Kβ, and PI3Kγ enzymes, substrate (PIP2), and ATP were prepared with buffer. The enzyme reaction system contained: buffer, 25 μM ATP, kinase substrate (PIP2, 50 μg/mL), and kinases PI3Kα (0.15 μg/mL), PI3Kδ (1.2 μg/mL), PI3Kβ (0.3 μg/mL), PI3Kγ (2.5 μg/mL), and the like. The reaction system was reacted at room temperature for 1 h. The reaction was terminated by adding a termination reagent (ADP-Glo reagent, 5 μL), and the ADP content in the system was detected using a detection reagent (Kinase Detection Reagent, 10 μL). Signal data were collected using an Envision instrument. The inhibition rate was calculated according to the following equation: % inhibition=(DMSO control signal value−sample signal value)/(DMSO control signal value−kinase-free control signal value). The IC50 values were obtained by fitting a curve using the equation: Y=Bottom+(Top−Bottom)/(1+(IC50/X)^HillSlope).
(ADP-Glo turns the ADP formed in a reaction into a luminescent signal.)

The next assay addresses PI3Kβ (Homo sapiens, UniProt P42338). Nature of the assay: ADP-Glo kinase assay, in vitro inhibition of PI3Kβ kinase activity. The format is biochemical. Particulars: 25 μM ATP, PIP2 50 μg/mL, room temperature 1 h, read-out: Inhibitory activity against PI3K kinases, PI3Kβ (IC50). The method, then: as §1, §2
For another assay, the target named is PI3Kγ (Homo sapiens, UniProt P48736). Nature of the assay: ADP-Glo kinase assay, in vitro inhibition of PI3Kγ kinase activity. The format is biochemical. Particulars: 25 μM ATP, PIP2 50 μg/mL, room temperature 1 h, read-out: Inhibitory activity against PI3K kinases, PI3Kγ (IC50). The method, then:
as §1, §2

A further assay deals with PI3Kδ (Homo sapiens, UniProt O00329). Nature of the assay: ADP-Glo kinase assay, in vitro inhibition of PI3Kδ kinase activity. The format is biochemical. Particulars: 25 μM ATP, PIP2 50 μg/mL, room temperature 1 h, read-out: Inhibitory activity against PI3K kinases, PI3Kδ (IC50). The procedure:
as §1, §2

For assay [2], the system named is MCF-7 cells (with PI3Kα E545K mutation). Nature of the assay: In vitro inhibition of MCF-7 cell proliferation (CellTiter-Lumi). The note with it: Homo sapiens, MCF7, 144 h, numeric values, read-out: Inhibitory activity against MCF-7 cells (IC50). The assay is classed as cell-based. The essentials:
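MCF-7 (PI3Kα E545K) seeded at 2000 cells/well; serially diluted compounds added next day and exposed for 144 h. Cellular ATP read by CellTiter-Lumi luminescence; IC50 for growth inhibition calculated.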

As a reminder, the IC50 is the concentration that gives 50% inhibition.

Chain of PI3Kδ (O00329 whole entry, species assumed): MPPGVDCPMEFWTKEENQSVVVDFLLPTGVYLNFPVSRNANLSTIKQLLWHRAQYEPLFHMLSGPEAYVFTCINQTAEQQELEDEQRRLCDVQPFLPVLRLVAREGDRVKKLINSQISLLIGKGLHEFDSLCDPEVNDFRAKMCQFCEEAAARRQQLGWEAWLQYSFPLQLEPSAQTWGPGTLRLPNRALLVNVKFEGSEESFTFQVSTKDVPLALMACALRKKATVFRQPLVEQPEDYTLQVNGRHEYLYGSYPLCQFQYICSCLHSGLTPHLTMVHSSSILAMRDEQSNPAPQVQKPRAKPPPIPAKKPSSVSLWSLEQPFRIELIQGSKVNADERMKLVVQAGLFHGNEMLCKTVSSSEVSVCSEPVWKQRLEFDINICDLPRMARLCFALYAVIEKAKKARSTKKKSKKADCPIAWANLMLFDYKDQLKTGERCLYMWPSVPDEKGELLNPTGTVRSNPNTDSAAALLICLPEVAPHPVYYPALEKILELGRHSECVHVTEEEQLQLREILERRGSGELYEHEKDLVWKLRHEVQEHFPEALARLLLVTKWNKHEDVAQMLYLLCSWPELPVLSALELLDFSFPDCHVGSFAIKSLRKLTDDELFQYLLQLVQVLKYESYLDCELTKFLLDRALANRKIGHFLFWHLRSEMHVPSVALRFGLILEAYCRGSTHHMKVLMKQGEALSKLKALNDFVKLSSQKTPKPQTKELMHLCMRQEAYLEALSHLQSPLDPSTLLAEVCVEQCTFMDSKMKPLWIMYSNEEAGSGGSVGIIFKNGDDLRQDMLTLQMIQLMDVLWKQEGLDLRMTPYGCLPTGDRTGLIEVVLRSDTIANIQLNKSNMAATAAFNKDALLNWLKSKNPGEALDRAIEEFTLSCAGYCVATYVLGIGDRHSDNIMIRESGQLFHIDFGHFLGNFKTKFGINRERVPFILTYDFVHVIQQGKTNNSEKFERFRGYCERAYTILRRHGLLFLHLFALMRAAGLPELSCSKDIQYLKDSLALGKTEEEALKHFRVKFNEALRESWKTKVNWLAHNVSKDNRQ
Chain of PI3Kδ (P27986 whole entry partner, species assumed): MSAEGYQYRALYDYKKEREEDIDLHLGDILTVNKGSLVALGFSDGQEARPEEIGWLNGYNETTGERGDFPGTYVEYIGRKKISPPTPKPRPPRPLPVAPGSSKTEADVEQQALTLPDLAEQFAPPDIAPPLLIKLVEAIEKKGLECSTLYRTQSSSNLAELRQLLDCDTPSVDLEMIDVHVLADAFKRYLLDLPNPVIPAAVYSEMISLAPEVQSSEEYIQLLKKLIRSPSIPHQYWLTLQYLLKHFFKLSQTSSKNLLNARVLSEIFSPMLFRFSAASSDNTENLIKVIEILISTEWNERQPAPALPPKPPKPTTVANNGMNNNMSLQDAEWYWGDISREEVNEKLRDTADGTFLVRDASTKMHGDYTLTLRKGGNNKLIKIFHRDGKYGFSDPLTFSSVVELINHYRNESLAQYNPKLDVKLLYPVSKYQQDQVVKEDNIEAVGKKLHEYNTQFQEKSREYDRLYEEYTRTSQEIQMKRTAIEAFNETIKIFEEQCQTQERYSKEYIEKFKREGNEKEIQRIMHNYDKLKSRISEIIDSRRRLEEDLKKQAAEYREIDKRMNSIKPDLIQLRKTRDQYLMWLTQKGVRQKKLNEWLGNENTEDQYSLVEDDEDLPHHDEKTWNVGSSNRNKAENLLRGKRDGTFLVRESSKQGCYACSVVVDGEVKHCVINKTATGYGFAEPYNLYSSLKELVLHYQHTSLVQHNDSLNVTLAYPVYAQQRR
Chain of PI3Kβ (P42338 whole entry, species assumed): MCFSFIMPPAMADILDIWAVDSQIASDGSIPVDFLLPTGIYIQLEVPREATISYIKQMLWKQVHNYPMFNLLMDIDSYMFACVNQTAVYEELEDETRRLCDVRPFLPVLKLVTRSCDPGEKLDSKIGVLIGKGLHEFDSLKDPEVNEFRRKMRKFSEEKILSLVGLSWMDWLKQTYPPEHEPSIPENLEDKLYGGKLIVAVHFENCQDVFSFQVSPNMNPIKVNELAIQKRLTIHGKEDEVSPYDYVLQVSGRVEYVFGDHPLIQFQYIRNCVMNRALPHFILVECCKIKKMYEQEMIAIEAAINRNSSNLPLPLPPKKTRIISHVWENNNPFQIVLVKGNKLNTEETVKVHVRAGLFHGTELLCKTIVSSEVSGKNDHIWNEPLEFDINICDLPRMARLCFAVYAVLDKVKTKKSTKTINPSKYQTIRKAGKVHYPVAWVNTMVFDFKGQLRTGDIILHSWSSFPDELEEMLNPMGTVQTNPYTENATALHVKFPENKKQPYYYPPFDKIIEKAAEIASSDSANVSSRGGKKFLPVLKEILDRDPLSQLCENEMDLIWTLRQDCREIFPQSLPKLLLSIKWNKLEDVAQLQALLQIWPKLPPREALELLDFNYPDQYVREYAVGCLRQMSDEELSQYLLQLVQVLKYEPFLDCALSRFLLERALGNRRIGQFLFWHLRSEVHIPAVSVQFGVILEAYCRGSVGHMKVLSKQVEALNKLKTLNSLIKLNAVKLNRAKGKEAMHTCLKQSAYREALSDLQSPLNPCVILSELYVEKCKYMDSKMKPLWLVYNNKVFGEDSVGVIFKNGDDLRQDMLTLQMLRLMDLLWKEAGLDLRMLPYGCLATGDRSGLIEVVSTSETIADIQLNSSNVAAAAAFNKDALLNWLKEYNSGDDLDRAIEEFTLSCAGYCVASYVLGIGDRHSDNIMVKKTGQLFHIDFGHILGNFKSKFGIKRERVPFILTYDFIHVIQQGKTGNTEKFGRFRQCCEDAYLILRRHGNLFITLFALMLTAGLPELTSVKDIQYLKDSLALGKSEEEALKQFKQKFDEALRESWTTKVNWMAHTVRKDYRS
Chain of PI3Kβ (P27986 whole entry partner, species assumed): as the sequence (P27986 whole entry partner, species assumed) above
Chain of PI3Kα (P42336 whole entry): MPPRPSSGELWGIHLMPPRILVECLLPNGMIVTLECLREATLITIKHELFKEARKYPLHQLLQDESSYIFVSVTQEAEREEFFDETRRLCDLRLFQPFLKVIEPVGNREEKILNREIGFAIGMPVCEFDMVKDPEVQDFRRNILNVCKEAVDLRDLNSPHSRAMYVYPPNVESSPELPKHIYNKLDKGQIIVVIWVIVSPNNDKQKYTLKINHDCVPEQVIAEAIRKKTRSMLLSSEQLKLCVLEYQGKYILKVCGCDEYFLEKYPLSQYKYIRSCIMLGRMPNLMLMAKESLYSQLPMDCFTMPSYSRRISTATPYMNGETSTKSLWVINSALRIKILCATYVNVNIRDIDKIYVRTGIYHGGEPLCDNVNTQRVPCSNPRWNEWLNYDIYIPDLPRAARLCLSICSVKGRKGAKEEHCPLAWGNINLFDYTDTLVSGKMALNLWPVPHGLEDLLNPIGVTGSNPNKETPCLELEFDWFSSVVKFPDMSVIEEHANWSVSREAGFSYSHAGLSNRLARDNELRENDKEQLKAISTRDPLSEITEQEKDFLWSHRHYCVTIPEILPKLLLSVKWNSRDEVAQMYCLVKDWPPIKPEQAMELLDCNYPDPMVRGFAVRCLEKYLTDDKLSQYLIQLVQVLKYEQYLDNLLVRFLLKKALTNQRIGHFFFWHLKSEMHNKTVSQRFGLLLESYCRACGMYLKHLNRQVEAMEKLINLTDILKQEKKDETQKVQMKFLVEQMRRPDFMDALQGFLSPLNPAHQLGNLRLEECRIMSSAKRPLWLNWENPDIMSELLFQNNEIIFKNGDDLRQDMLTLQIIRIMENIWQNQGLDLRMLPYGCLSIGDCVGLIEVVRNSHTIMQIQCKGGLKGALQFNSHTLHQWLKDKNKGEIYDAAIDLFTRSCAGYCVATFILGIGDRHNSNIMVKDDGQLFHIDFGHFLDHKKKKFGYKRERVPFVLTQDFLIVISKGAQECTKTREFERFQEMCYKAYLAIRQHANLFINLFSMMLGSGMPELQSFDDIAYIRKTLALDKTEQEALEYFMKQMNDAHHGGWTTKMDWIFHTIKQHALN
Chain of PI3Kα (P27986 whole entry partner): as the sequence (P27986 whole entry partner, species assumed) above
Chain of PI3Kγ (P48736 whole entry, species assumed): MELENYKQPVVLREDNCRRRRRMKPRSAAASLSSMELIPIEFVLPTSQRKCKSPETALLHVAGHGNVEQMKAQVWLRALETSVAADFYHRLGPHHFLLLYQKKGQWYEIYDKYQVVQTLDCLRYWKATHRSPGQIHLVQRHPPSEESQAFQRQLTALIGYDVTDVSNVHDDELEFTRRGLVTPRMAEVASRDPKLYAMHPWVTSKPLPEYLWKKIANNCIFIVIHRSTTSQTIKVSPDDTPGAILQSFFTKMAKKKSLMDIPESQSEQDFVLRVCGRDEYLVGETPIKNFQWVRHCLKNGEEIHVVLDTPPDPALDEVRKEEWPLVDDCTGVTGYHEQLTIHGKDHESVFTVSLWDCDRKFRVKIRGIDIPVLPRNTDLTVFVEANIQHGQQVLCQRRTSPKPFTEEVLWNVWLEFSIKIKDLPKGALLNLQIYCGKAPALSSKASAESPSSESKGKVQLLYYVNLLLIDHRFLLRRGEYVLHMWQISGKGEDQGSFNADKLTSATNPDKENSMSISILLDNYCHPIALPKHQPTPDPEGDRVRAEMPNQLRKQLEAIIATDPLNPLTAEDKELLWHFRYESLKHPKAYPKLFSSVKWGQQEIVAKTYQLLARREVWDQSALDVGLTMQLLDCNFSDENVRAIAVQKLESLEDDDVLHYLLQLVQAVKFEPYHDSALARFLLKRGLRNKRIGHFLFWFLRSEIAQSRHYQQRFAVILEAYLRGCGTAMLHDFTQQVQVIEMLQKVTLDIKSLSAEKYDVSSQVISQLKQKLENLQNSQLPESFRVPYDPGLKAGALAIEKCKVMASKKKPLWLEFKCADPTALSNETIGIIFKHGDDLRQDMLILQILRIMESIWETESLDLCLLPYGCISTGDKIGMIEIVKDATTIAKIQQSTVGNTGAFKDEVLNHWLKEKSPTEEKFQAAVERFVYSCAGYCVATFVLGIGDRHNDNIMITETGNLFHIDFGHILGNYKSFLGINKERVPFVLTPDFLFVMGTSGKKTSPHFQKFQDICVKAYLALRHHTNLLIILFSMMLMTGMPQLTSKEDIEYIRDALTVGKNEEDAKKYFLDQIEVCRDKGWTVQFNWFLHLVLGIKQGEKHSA

In the case of `CN(C1COC1)C(C)(C)/C=C(\C#N)C(=O)Nc1ccc(N2CC(N3CCN(c4ccc5c(c4)-c4nc(N6C(=O)OC[C@H]6C(F)F)cn4CCO5)CC3)C2)cc1` [Compound 95], the IC50 in assay [1] was found to be 68 nM; on PI3Kα it was 0.16 nM; at PI3Kβ, 1090 nM; at PI3Kγ, 42 nM; at PI3Kδ, 103 nM; in assay [2], 38 nM.
Regarding `C=CC(=O)Nc1ccc(CC(=O)N2CCN(c3ccc4c(c3)-c3nc(N5C(=O)OC[C@H]5C(F)F)cn3CCO4)CC2)cc1` [Compound 1], the IC50 in assay [1] was 103 nM; at PI3Kα, 5.4 nM; at PI3Kβ, 317 nM; on PI3Kγ, 21 nM; on PI3Kδ, below 8 nM; in assay [2], 18 nM.
Consider `C=CC(=O)N1CC(N2CCC(CN3CCN(c4ccc5c(c4)-c4nc(N6C(=O)OC[C@H]6C(F)F)cn4CCO5)CC3)CC2)C1` [Compound 17], for which the half-inhibitory concentration (IC50) in assay [1] was found to be 81 nM; on PI3Kα, 11 nM; at PI3Kβ, 314 nM; on PI3Kγ it was 317 nM; at PI3Kδ, 92 nM; in assay [2], 16 nM.
Consider `C=CC(=O)N1CCC(N2CC(CN3CCN(c4ccc5c(c4)-c4nc(N6C(=O)OC[C@H]6C(F)F)cn4CCO5)CC3)C2)CC1` [Compound 5], for which the IC50 in assay [1] was 670 nM; at PI3Kα, 50 nM; on PI3Kβ, 314 nM; on PI3Kγ, 1200 nM; at PI3Kδ, 117 nM; in assay [2], 35 nM.
As to `C=CC(=O)Nc1ccc(N2CC(N3CCN(c4ccc5c(c4)-c4nc(N6C(=O)OC[C@H]6C(F)F)cn4CCO5)CC3)C2)cc1` [Compound 27], the IC50 in assay [1] was 9 nM; at PI3Kα, 0.21 nM; at PI3Kβ it was 2920 nM; on PI3Kγ, 26 nM; at PI3Kδ, 76 nM; in assay [2], 0.36 nM.
Regarding `C=CC(=O)N1CC[C@@H](C(=O)NCC(=O)N2CCN(c3ccc4c(c3)-c3nc(N5C(=O)OC[C@H]5C(F)F)cn3CCO4)CC2)C1` [Compound 2], the half-inhibitory concentration (IC50) came to 97 nM in assay [1]; 7.3 nM at PI3Kα; 513 nM at PI3Kβ; 44 nM at PI3Kγ; 20 nM at PI3Kδ; 28 nM in assay [2].
On to `C=CC(=O)Nc1ccc(N2CC[C@H](N3CCN(c4ccc5c(c4)-c4nc(N6C(=O)OC[C@H]6C(F)F)cn4CCO5)CC3)C2)cc1` (single isomer, unassigned) [Compound 29], for which the half-maximal inhibitory concentration (IC50) at PI3Kα is 1.18 nM; on PI3Kβ, 1260 nM; on PI3Kγ, 38 nM; at PI3Kδ, 49 nM.
Take `C=CC(=O)Nc1ccc(N2CC(CN3CCN(c4ccc5c(c4)-c4nc(N6C(=O)OC[C@H]6C(F)F)cn4CCO5)CC3)C2)cc1` [Compound 4]: the 50% inhibitory concentration (IC50) in assay [1] came out at 65 nM; on PI3Kα, 7.4 nM; on PI3Kβ it was 315 nM; on PI3Kγ, 98 nM; at PI3Kδ, 43 nM; in assay [2], 26 nM.
Consider `CN(C)C/C=C/C(=O)Nc1ccc(N2CC(N3CCN(c4ccc5c(c4)-c4nc(N6C(=O)OC[C@H]6C(F)F)cn4CCO5)CC3)C2)cc1` [Compound 96], for which the IC50 in assay [1] is 26 nM; at PI3Kα, 1.33 nM; at PI3Kβ, 3160 nM; on PI3Kγ, 223 nM; on PI3Kδ, 475 nM; in assay [2], 2.5 nM.
